# Key:
# EC and IC rats [1] = test: Visible platform water maze task in EC and IC rats; type: in vivo, Sprague Dawley rats; conditions: UMP-supplemented diet
# Excerpt: On each trial the animal was placed into the tank facing the wall at one of four designated start points (N, S, E, and W) and allowed to escape onto the visibly cued platform. A different starting point was used on each trial such that each starting point was used each day. In addition, the visible escape platform was placed in a different quadrant on each trial such that each of the four quadrants contained the escape platform once each day. […] After mounting the platform, rats remained on the platform for 20 sec. Following each trial, animals were removed from the maze and placed in a holding cage for a 30-sec ITI.
# EC and IC rats [2] = test: Hidden platform water maze task and probe test in EC and IC rats; type: in vivo, Sprague Dawley rats; conditions: 0.1% UMP diet
# Experimental: Behavioral training was carried out between 10:00 AM-2:00 PM, in a blinded manner. […] A different starting point was used on each trial such that each starting point was used once each day. […] After mounting the platform, rats remained on the platform for 20 seconds. Following each trial, animals were removed from the maze and placed in a holding cage for a 30 second inter-trial interval (ITI). The latency to mount the escape platform was used as a measure of task acquisition.
# For this, the platform was removed and the swim path and time spent searching in the quadrant of the pool that previously contained the platform were measured over 60 s. This provides a measurement for the retention of spatial memory and indicates whether a spatial strategy was used during hidden platform training.
# [3] = tested on: dopamine (DA) release in striatal dialysate; test: In vivo microdialysis of striatal dopamine and metabolites in aged rats on UMP diet; set-up: species or system Fischer 344 rats; conditions: control vs. UMP-1 week vs. UMP-6 weeks, 2.5% UMP diet
# [4] = tested on: CDP-choline levels in the brain; test: Brain CDP-choline levels after oral UMP in gerbils; type: in vivo; conditions: UMP 1 mmole/kg by gavage, for 30 min, r=0.98, p<0.02
# Experimental: Data was pooled from three experiments, with group sizes ranging from 5 to 16 animals. Male gerbils (60-80 g) were given UMP (1 mmole/kg body weight) by gavage and sacrificed at the indicated times. After brain homogenization, protein precipitation, and lyophilization as described for Example 3, samples were analyzed by HPLC-UV.
# Brain tissue or cells was dissolved in methanol/chloroform (1:2 vol/vol), centrifuged, and the aqueous phase was dried under vacuum, resuspended in 100-200 μL water and separated by HPLC on an ion-exchange column (Alltech Hypersil APS-2, 5 μM, 250×4.6 mm). CDP-choline was eluted with a linear gradient of NaH2PO4 buffers A (1.75 mM NaH2PO4, pH 2.9) and B (500 mM, pH 4.5), which allowed resolution of CDP-choline from closely co-eluting substances such as UMP over 40 min. The retention time for CDP-choline was 9.5 min. Individual nucleotide peaks were detected by UV absorption at […], and were identified by comparison with the positions of authentic standards, as well as by the addition of nucleotide standards to selected samples.
# gerbils = test: Radial arm maze food pellet learning assay in gerbils; type: in vivo; conditions: gerbils, 0.1, 0.5 or 2.5% UMP chow for three weeks
# Experimental: Male young adult gerbils fed control or UMP-containing chow (0, 0.1, 0.5 or 2.5%) ad lib for three weeks were tested in a radial arm maze, consisting of a central chamber with four branches primed with a small food pellet at the end of each. Before testing, animals were fasted overnight; each animal was then placed in the central chamber and allowed up to 180 seconds to find all of the pellets. A shorter time required to find the pellets is indicative of improved learning and spatial memory.
# [5] = Plasma uridine levels after oral UMP in humans; type: in vivo; conditions: 500, 1000 or 2000 mg UMP orally; baseline and 1, 2, 4, 8 hr
# Experimental: 1-milliliter (mL) samples of heparinized plasma were spiked with 1 μg fluoro-uridine for use as an internal standard, then deproteinized by adding methanol (5 mL).
# All steps were performed at 4° C. Boronate affinity columns (Affigel-601, Bio-Rad) were primed with two 5-mL ammonium acetate washes, samples were applied, and columns were washed again with ammonium acetate, after which the nucleosides were eluted with 0.1 N formic acid (7 mL). Eluates were lyophilized, then reconstituted in 100 μL water for HPLC analysis.
# HPLC analysis was performed using a Beckman System Gold apparatus (Beckman Instruments) equipped with a Rainin Dynamax Microsorb C18 column (3 μm packing; 4.6×100 mm) at room temperature. The standard HPLC method is described in Lopez-Coviella et al, (J. Neurochem 65: 889-894, 1995). For modified HPLC, an isocratic elution buffer was used containing 0.004 N potassium phosphate buffer (pH 5.8) and 0.1% methanol instead of formic acid, flowing at 1 mL/min and heated to 35°.
# Eight healthy subjects (5 male, 3 female, 27-67 years old) were instructed to fast overnight and given sequentially increasing doses (500, 1000, and 2000 mg) of disodium UMP (Numico, Wageningen, NL) at 7-8 AM on each of three days, separated by at least a three-day washout period. All subjects were given lunch. Blood samples were drawn over an eight-hour period into heparinized tubes. […]
# [6] = Body weight of EC and IC rats on UMP diet; type: in vivo, Sprague Dawley rats; conditions: 0.1% UMP-2Na+ diet vs control groups
# Experimental: Animals were maintained under standard environmental conditions (room temperature, 20-25° C.; relative humidity, 55-60%; light/dark schedule, 12/12). Seven pregnant Sprague Dawley rats (Charles River Laboratories) were obtained 1 wk prior to giving birth. […] At this time, thirty-two rats were matched according to body weight, and assigned to either IC or EC conditions.
# Rats were housed in the same rack in plastic cages (52×32×20 cm high) with wire lids. Bedding and water were regularly changed, and animals were weighed each week, at which time general health assessments were made. Animals had ad libitim access to chow and water. EC rats were housed in groups of 2-3 animals Plastic toys (blocks, balls, PVC tubing, etc) placed in the EC cages were rotated between groups weekly; new toys were introduced monthly EC rats were taken to a “playroom” (12×6 ft; containing cabinets, desks, chairs, boxes, and toys) every other day for 45 min. The IC rats were housed individually, without toys, and handled three times per week to acclimatize the animals to experimenter handling and in order to alleviate fear and anxiety in subsequent behavioral training procedures. To avoid the typical weight gain caused by impoverished conditions (relative to enriched rats), IC rats were allowed to exercise three times per week for 15 min in an empty 4×6 ft room with only the experimenter present. […]
compound,measurement,setting,value
"O=c1ccn([C@@H]2O[C@H](COP(=O)([O-])[O-])[C@@H](O)[C@H]2O)c(=O)[nH]1.[Na+].[Na+] [UMP, uridine-5′-monophosphate disodium]","Striatal-based (stimulus-response) memory, visible platform task",EC and IC rats [1],little or no effect
same,Rate of acquisition of hidden platform task,"EC and IC rats [2]; EC rats, vs EC-CONT, P<0.09",acquired the task at a faster rate
same,Rate of acquisition of hidden platform task,"EC and IC rats [2]; IC rats, vs IC-CONT, P<0.05",acquired the task at a significantly faster rate
same,"Time in correct quadrant, 60 s probe test","EC and IC rats [2]; IC rats, vs IC-CONT, p<0.01",spent significantly more time in the correct quadrant
same,Basal DA levels in dialysate,[3],did not affect
same,Basal DOPAC levels in dialysate,[3],no effects
same,Basal HVA levels in dialysate,[3],no effects
same,Brain CDP-choline levels,[4],rose significantly in a linear fashion
same,Time required to find the pellets,gerbils,reduced the time required for gerbils to find the pellet in a dose-dependent manner
same,Plasma uridine levels,[5],increased in response to oral UMP in a dose-dependent fashion
same,Mean body weights,[6],No significant differences

# Source: US8518882B2, “Methods and compositions for ameliorating or inhibiting decline in memory or intelligence or improving same” (priority 1998, dated 2013)
